{"source": "patent US20260262641A1", "about": "(priority 2023, published 2026)", "key": {"[1]": {"test_system": "redlegged earth mite (H. destructor; RLEM)", "experiment": "Field trial in canola, pre- or post-emergent control of RLEM (Example 5)", "format": "in vivo, Halotydeus destructor", "method": "A field trial was conducted in canola cv. Garrison, to evaluate fenpyroximate for control of redlegged earth mite (H. destructor; RLEM) as a pre- or post-emergent application. The trial was located at Beverley, Western Australia (−32.2248085, 117.0268493). The canola was sown on 13th June 2023. […] All treatments were applied using a hand boom fitted with flat fan nozzles in a spray volume of 100 L/ha.\nThe density of RLEM was assessed 33 days after the second application timing by counting the number of mites per plant.\nAll data was statistically analyzed using analysis of variance and Fisher's protected least significant different test (Fishers LSD). The level of significance for all tests was P<0.05."}, "[2]": {"test_system": "insecticide-resistant population of redlegged earth mite (H. destructor; RLEM)", "experiment": "whole plant or invertebrate", "conditions": "Halotydeus destructor, 24 h, read-out: % RLEM mortality, Resistant", "method": "(§1) The insecticide-susceptible H. destructor population tested in this bioassay was collected from burr medic (Medicago polymorpha) and barley grass (Hordeum leporinum) in Moulamein, NSW (−35.102, 144.026), a site with no known history of insecticide application. […] Mites were collected via suction using a Stihl SH55 blower vacuum, placed in plastic containers with paper towel and vegetation, and transported back to the laboratory, where they were stored at 4° C. until testing.\n(§2) Serial dilutions were prepared for each insecticide (Table 9), with the addition of a non-ionic surfactant (Tween 20) at 0.01% to aid the spread of the insecticide and ensure even coating. […] Nine concentrations of bifenthrin were tested, ranging from 1×10^−5 to 10 times the field rate of 40 mL diluted in 100 L of water (100 mg a.i./L). Seven concentrations of omethoate were tested, ranging from 1×10^−5 to 10 times the field rate of 100 mL in 100 L of water (290 mg a.i./L).\n(§3) Six vials were coated per concentration and were left to dry overnight. Control vials were treated in the same way, except water (with the addition of 0.01% Tween) was used. The next day, eight individual H. destructor were then placed into each vial along with 2-3 leaves of common vetch (Vicia sativa), which provided food and humidity. Vials were then sealed with a screw lid and placed in a controlled temperature cabinet at 18° C. After 24-hours exposure, mites were scored as alive (moving freely), incapacitated (inhibited movement), or dead (no movement over a 5 second period).\n(§4) Dose-response curves were generated by plotting percentage mortality against log concentration. A series of logistic models were used to quantify the sensitivity of H. destructor to each chemical and to test whether any differences in sensitivity were present between the two populations. Logistic regression is well suited for the analysis of binary response data (e.g., dead/alive). Each model included chemical concentration and H. destructor population as fixed-effect predictors, which allowed testing for whether populations had average differences in mortality (i.e., model intercept) via F tests. It was then determined if populations had differences in mortality that were dependent on chemical concentration (i.e., differences in regression slopes) by comparing the inclusion of a population×concentration predictor (i.e., allowing slopes to vary between populations). […] The resulting LC50 values were used to quantify the level of insecticide resistance (resistance ratios) relative to the known insecticide-susceptible population. All analyses were conducted using R version 4.3.1 (R Development Core Team 2023)."}, "[3]": {"test_system": "insecticide-susceptible population of redlegged earth mite (H. destructor; RLEM)", "experiment": "whole plant or invertebrate", "conditions": "Halotydeus destructor, 24 h, read-out: % RLEM mortality, Susceptible", "method": "as §1, §2, §3, §4"}, "[4]": {"test_system": "redlegged earth mite (H. destructor; RLEM)", "experiment": "whole plant or invertebrate", "method": "On the 14th of May 2022, H. destructor were collected from capeweed (Arctotheca calendula) in South Morang, Victoria (−37.625, 145.110), a site with no known history of insecticide application. Mites were collected via suction using a Stihl SH55 blower vacuum, placed in plastic containers with paper towel and vegetation, and transported back to the laboratory, where they were stored at 4° C. until testing.\nSerial dilutions were prepared for each insecticide (Table 1), with the addition of a non-ionic surfactant (Tween 20) at 0.01% to aid the spread of the insecticide and ensure even coating. […] Nine concentrations of pyridaben ranging from the proposed field rate of 1480 mL diluted in 100 L of water (1998 mg a.i./L) to 1×10^−5 were serially diluted and tested along with a water control. Eight concentrations of omethoate, ranging from 10 times the field rate of 100 mL diluted in 100 L of water (290 mg a.i./L) to 1×10^−5, were tested along with a water control. Seven concentrations of bifenthrin, ranging from 10 times the field rate of 40 mL diluted in 100 L of water (100 mg a.i./L) to 1×10^−5, were tested along with a water control. For each insecticide concentration tested, approximately 10 mL of solution was poured into a 15 mL plastic vial and swirled to ensure a complete coating, with excess liquid removed. Six vials were coated per concentration and were left to dry overnight. Control vials were treated in the same way, except water (with the addition of 0.01% Tween) was used.\nApproximately eight individual H. destructor were then placed into each vial along with 2-3 leaves of common vetch (Vicia sativa), which provided food and humidity. Vials were then sealed with a screw lid and placed in a controlled temperature cabinet at 18° C. After 24-hours exposure, mites were scored as alive (moving freely), incapacitated (inhibited movement), or dead (no movement over a 5 second period).\nDose-response curves were generated by plotting percentage mortality against log concentration. […] Logistic regression is well suited for the analysis of binary response data (e.g., dead/alive). All analyses were conducted using R version 3.3.1 (R Development Core Team 2022)."}, "[5]": {"conditions": "Halotydeus destructor, 24 h, read-out: % RLEM mortality"}}}
{"smiles": "Cc1nn(C)c(Oc2ccccc2)c1C=NOCc1ccc(C(=O)OC(C)(C)C)cc1", "note": "[Fenpyroximate]", "values": [{"measurement": "% Control (33 DAA2)", "setting": "[1]; application timing A (post-sow pre-emergent), product rate 1000 mL/ha", "value": 67, "unit": "%"}, {"measurement": "% Control (33 DAA2)", "setting": "[1]; application timing A (post-sow pre-emergent), product rate 2000 mL/ha", "value": 61, "unit": "%"}, {"measurement": "% Control (33 DAA2)", "setting": "[1]; application timing B (early post-emergent, 1 to 2 leaf canola), product rate 1000 mL/ha", "value": 63, "unit": "%"}, {"measurement": "% Control (33 DAA2)", "setting": "[1]; application timing B (early post-emergent, 1 to 2 leaf canola), product rate 2000 mL/ha", "value": 68, "unit": "%"}, {"measurement": "mortality at 0.1 µg/mL", "setting": "[2]", "value": 4.6, "unit": "%"}, {"measurement": "mortality at 10 µg/mL", "setting": "[2]", "value": 11.2, "unit": "%"}, {"measurement": "mortality at 100 µg/mL", "setting": "[2]", "value": 45.7, "unit": "%"}, {"measurement": "mortality at 300 µg/mL", "setting": "[2]", "value": 86.3, "unit": "%"}, {"measurement": "mortality at 1000 µg/mL", "setting": "[2]", "value": 100, "unit": "%"}, {"measurement": "mortality at 10000 µg/mL", "setting": "[2]", "value": 100, "unit": "%"}, {"measurement": "mortality at 0.1 µg/mL", "setting": "[3]", "value": 6.9, "unit": "%"}, {"measurement": "mortality at 1 µg/mL", "setting": "[3]", "value": 12.6, "unit": "%"}, {"measurement": "mortality at 10 µg/mL", "setting": "[3]", "value": 11.3, "unit": "%"}, {"measurement": "mortality at 100 µg/mL", "setting": "[3]", "value": 47.3, "unit": "%"}, {"measurement": "mortality at 300 µg/mL", "setting": "[3]", "value": 92.2, "unit": "%"}, {"measurement": "mortality at 1000 µg/mL", "setting": "[3]", "value": 98.5, "unit": "%"}, {"measurement": "mortality at 10000 µg/mL", "setting": "[3]", "value": 100, "unit": "%"}, {"measurement": "concentrations at which mite mortality was observed", "setting": "[4]; 24 hours exposure", "value": "greater than 50 mg a.i./L"}, {"measurement": "mortality at 0.01 µg/mL", "setting": "[4]; [5]", "value": 0, "unit": "%"}, {"measurement": "mortality at 0.1 µg/mL", "setting": "[4]; [5]", "value": 0, "unit": "%"}, {"measurement": "mortality at 1 µg/mL", "setting": "[4]; [5]", "value": 0, "unit": "%"}, {"measurement": "mortality at 10 µg/mL", "setting": "[4]; [5]", "value": 0, "unit": "%"}, {"measurement": "mortality at 30 µg/mL", "setting": "[4]; [5]", "value": 0, "unit": "%"}, {"measurement": "mortality at 50 µg/mL", "setting": "[4]; [5]", "value": 6, "unit": "%"}, {"measurement": "mortality at 100 µg/mL", "setting": "[4]; [5]", "value": 30.5, "unit": "%"}, {"measurement": "mortality at 300 µg/mL", "setting": "[4]; [5]", "value": 93.8, "unit": "%"}, {"measurement": "mortality at 500 µg/mL", "setting": "[4]; [5]", "value": 100, "unit": "%"}, {"measurement": "mortality at 1000 µg/mL", "setting": "[4]; [5]", "value": 98.7, "unit": "%"}, {"measurement": "control of RLEM", "setting": "[4]; concentration of 300 g a.i./L (as printed in text)", "value": 93.8, "unit": "%"}, {"measurement": "control of RLEM", "setting": "[4]; concentration of 500 g a.i./L (as printed in text)", "value": 100, "unit": "%"}, {"measurement": "efficacy against RLEM (in words)", "setting": "[4]; laboratory bioassay, 24 hours exposure", "value": "highly efficacious"}]}
